Here are results for 10 compounds from paper PMC2828546, “Screening-based discovery of drug-like O-GlcNAcase inhibitor scaffolds” (Febs Letters, 2010).

Several values for one entry are separate records, joined by “and”; a condition that tells them apart may be missing. Identical values can stand only once. Entries after “also recorded” stand apart in the source; their conditions may differ. Like-named read-outs stand apart in the source and are kept apart here.

In assay [1] the target is T1, CpOGA (Clostridium perfringens, UniProt Q0TR53). The conditions noted are these: read-out: CpOGA Ki; cited from earlier work.
T1 sequence (Q0TR53 31-624 limits assumed): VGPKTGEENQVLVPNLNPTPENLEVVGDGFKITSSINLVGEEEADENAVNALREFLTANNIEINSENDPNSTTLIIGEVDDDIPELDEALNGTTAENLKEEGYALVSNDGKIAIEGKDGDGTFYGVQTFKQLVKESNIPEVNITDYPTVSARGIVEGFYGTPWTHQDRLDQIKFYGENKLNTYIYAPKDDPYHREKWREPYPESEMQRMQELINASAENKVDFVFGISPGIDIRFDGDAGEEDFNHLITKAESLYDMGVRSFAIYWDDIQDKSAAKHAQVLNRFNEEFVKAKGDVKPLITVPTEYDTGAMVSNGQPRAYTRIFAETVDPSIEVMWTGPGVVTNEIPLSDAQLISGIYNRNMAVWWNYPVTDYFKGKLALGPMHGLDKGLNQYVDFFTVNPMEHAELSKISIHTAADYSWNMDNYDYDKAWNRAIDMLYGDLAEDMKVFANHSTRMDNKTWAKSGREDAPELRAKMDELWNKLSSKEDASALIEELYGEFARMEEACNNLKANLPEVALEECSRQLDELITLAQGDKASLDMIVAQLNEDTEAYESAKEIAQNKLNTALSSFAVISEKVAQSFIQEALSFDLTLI
Assay [2] deals with T1, CpOGA. The experiment in a line: biochemical.
The target in assay [3] is T1, CpOGA. Type of assay: biochemical.
Assay [4] deals with T2, hOGA (Homo sapiens, UniProt O60502).
T2 construct: made in house
T2 sequence (O60502 1-916): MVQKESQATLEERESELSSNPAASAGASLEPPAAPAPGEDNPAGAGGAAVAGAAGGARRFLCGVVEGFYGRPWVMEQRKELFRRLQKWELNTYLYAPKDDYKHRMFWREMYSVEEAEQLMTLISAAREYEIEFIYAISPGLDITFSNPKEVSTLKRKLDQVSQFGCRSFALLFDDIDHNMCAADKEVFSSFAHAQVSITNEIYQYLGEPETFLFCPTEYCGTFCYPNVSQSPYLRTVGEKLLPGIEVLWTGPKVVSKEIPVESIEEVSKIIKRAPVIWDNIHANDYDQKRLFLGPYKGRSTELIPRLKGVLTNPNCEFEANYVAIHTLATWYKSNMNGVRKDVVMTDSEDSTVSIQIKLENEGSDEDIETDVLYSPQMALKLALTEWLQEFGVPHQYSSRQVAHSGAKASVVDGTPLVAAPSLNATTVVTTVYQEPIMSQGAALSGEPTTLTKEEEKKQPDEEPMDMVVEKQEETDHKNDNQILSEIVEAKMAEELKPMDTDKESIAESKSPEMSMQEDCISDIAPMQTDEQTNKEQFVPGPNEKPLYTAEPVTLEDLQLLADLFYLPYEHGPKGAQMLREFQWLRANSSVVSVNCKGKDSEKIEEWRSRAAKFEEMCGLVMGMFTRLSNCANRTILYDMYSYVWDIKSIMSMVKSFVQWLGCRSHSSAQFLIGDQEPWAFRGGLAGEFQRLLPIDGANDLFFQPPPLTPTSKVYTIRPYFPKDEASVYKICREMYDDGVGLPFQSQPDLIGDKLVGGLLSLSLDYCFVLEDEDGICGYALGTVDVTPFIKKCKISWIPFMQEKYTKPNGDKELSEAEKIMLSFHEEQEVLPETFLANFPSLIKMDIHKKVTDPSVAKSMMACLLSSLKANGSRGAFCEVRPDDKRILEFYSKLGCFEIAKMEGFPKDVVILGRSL
The experiment in a line: hOGA inhibition, fluorogenic 4MU-NAG substrate. It is filed as biochemical. The following applies: for IC50: 80 μM 4MU-GlcNAc (Km), 60 min, pH 5.7; for hOGA BEI (Binding Efficiency Index): BEI = -log(Ki)/M, M in kDa, Ki from IC50 by Cheng-Prusoff; for Selectivity (HexA/B/hOGA): ratio of HexA/B to hOGA inhibition constants.

A further assay deals with human hexosaminidase A/B. The experiment in a line: HexA/B inhibition, fluorogenic 4MU-NAG substrate. The conditions noted are these: 230 μM substrate (Km), 15 min, pH 5.7. Type of assay: biochemical. As to the method: Further kinetic experiments to determine the mode of inhibition were carried out according to the procedure described previously. […] IC50 measurements with CpOGA, hOGA and a mixture of human hexosaminidase A/B activities (Sigma A6152) against the compounds were performed using the fluorogenic 4MU-NAG substrate and standard reaction mixtures as described previously with some changes [[39,31,40]]. Standard reaction mixtures (50 μl) contained 0.2 nM CpOGA, 2 nM hOGA or 50 μ units unit/ml HexA/B in McIlvaine buffer (0.2 M Na2HPO4 mixed with 0.1 M citric acid to pH 5.7) supplemented with 0.1 mg/ml BSA. […] The reactions were run at room temperature for 7 min (CpOGA), 60 min (hOGA) or 15 min (HexA/B).

Assay [5] addresses T2, hOGA. The conditions noted are these: cited from earlier work.
Assay [6] concerns the target T1, CpOGA. Kind of assay: biochemical. The conditions noted are these: read-out: inhibition of CpOGA in the screen.
Assay [7] has as its target T1, CpOGA. The following applies: read-out: CpOGA IC50; cited from earlier work.

For the compound `CC(=O)N[C@H]1/C(=N/OC(=O)Nc2ccccc2)O[C@H](CO)[C@@H](O)[C@@H]1O` [PUGNAc], the Ki (in general, a measure of affinity in units of concentration, obtained from inhibition or displacement) on CpOGA [1] is 0.005 µM.

For `Cn1c(=O)c2c(ncn2CC(O)CO)n(C)c1=O` (centres unmarked) [Diprophylline, diprophylline], the IC50 (usually the concentration needed to halve the response being measured) is 60 ± 10 µM against CpOGA [2]; over 100 µM on hOGA [4] (2 nM hOGA, read-out: hOGA IC50); 200 ± 30 µM on human hexosaminidase A/B. In addition, at CpOGA [3], the “inhibition mode against CpOGA” value is “compete for binding to the same CpOGA active site; also recorded: competitive inhibitor”. Further, on hOGA [4], the “hOGA BEI (Binding Efficiency Index)” value amounted to 16. Further, the “Selectivity (HexA/B/hOGA)” value on hOGA [4] stood at 1.6.

For the compound `CNc1ncnc2nc[nH]c12` [N^6-methyladenine], the IC50 at hOGA [4] (2 nM hOGA, read-out: hOGA IC50) is 4 ± 0.3 µM; against human hexosaminidase A/B, 300 µM.

For `CCCC1=N[C@@H]2[C@@H](O)[C@H](O)[C@@H](CO)O[C@@H]2S1` [NButGT], on hOGA [5] (thiazoline derivative, selectivity for hOGA), the “selectivity for hOGA” value is listed as 600 fold.

For `c1ccc(CNc2ncnc3nc[nH]c23)cc1` [6-benzylaminopurine], the inhibition (usually the change of the read-out against control, counted positive when it falls) at 30.2 µM at CpOGA [6] turned out to be 30%.

With `CC1CCC(NC(=O)N(CCCl)N=O)CC1` (centres unmarked) [Semustine, semustine], the “inhibition mode against CpOGA” value against CpOGA [3] is on record as “compete for binding to the same CpOGA active site”. On hOGA [4], the “hOGA BEI (Binding Efficiency Index)” value is listed as 16 and the “Selectivity (HexA/B/hOGA)” value worked out at 9. This compound also showed an IC50 on hOGA [4] (hOGA IC50, 2 nM hOGA) of over 100 µM. On human hexosaminidase A/B, the midpoint of inhibition, the IC50, lay at 2500 µM.

For `CC(=O)Nc1nnc(S(N)(=O)=O)s1` [Acetazolamide, acetazolamide], at hOGA [4] (2 nM hOGA, read-out: hOGA IC50), the IC50 was 47 ± 0.1 µM.

As to `CN(N=O)C(=O)N[C@H]1C(O)O[C@H](CO)[C@@H](O)[C@@H]1O` (some centres unmarked) [Streptozotocin, streptozotocin], at hOGA [4], the “hOGA BEI (Binding Efficiency Index)” value is listed as 11 and the “Selectivity (HexA/B/hOGA)” value is 30. The IC50 at CpOGA [7] is 30 µM. The Ki at hOGA [5] (Ki value from literature, read-out: hOGA Ki (printed in hOGA IC50 column)) was 1500 µM.

In the case of `O=C1CC2(CCCC2)CC(=O)N1CCCCN1CCN(c2ncccn2)CC1` [Buspirone, buspirone], the IC50 on hOGA [4] (2 nM hOGA, read-out: hOGA IC50) was 25 ± 0.1 µM; against human hexosaminidase A/B, 47 ± 3 µM.

In the case of `CC(=O)N1CCN(c2ccc(OCC3COC(Cn4ccnc4)(c4ccc(Cl)cc4Cl)O3)cc2)CC1` (centres unmarked) [Ketoconazole, ketoconazole], the “inhibition mode against CpOGA” value at CpOGA [3] is listed as “compete for binding to the same CpOGA active site”. Besides, the IC50 at hOGA [4] (2 nM hOGA, read-out: hOGA IC50) is 4 µM and 4.3 µM; on human hexosaminidase A/B, 11 ± 1 µM.
